{
  "source": "patent US20010049373A1",
  "about": "“Materials and methods for killing nematodes and nematode eggs” (priority 2000, published 2001)",
  "key": {"Caenorhabditis elegans [1]": {"system": "Caenorhabditis elegans", "experiment": "HTS runs (initial and follow-up): mOD, % Run and visual score (Table 3)", "format": "in vivo", "method": "The nematicidal activity of anthelmintic Compositions 48-118 were determined in accordance with the procedure outlined in Example 2."}, "Caenorhabditis elegans [2]": {"system": "Caenorhabditis elegans", "experiment": "C. elegans L1 larvae dose-response, 5 day visual viability score (Examples 2 and 7)", "format": "in vivo", "set-up": "key: Dead: only stiff L1s (no movement); Dead (L4): worms are dead, but at a later larval stage; majority of worms are L1 (based on size); majority of worms are L2 (based on size); majority of worms are L3 (based on size); majority of worms are L4 (based on size); AD: majority of worms are adult; #AD: 5 adult worms or less; B!: sterile (0-25 progeny); B: low broodsize (25-100 progeny); ˜B: moderate broodsize (100-250 progeny); <: reduced broodsize (250-500 progeny); OK: no effect (˜1000+ progeny)", "conditions": "day 5, Table 3", "outline": "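Twenty L1 larvae per well in NGM with E. coli HB101 were exposed to six 3-fold dilutions from 70 μM to 0.3 μM, 1.4% DMSO final, at 20° C. Day-5 viability was scored visually under a dissecting microscope by developmental stage, adult count and brood size.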"}},
  "data": [
    {"molecule": "CCC1CCCCN1c1cc(Oc2ccc3oc4ccccc4c3c2)ncn1", "note": "(stereo not drawn) [AKC 109]", "values": [
      {"measurement": "Follow-up HTS Run % Run", "setting": "Caenorhabditis elegans [1]; Follow-up HTS Run", "result": 121, "unit": "%"},
      {"measurement": "Follow-up HTS Run Visual Score", "setting": "Caenorhabditis elegans [1]; Follow-up HTS Run", "result": "L4/AD/B!"},
      {"measurement": "Follow-up HTS Run mOD", "setting": "Caenorhabditis elegans [1]; Follow-up HTS Run", "result": 163, "unit": "mOD"},
      {"measurement": "Initial HTS Run % Run", "setting": "Caenorhabditis elegans [1]; Initial HTS Run", "result": 132, "unit": "%"},
      {"measurement": "Initial HTS Run Visual Score", "setting": "Caenorhabditis elegans [1]; Initial HTS Run", "result": 1, "unit": "AD/B!"},
      {"measurement": "Initial HTS Run mOD", "setting": "Caenorhabditis elegans [1]; Initial HTS Run", "result": 258, "unit": "mOD"},
      {"measurement": "5 Day Visual Score V6", "setting": "Caenorhabditis elegans [2]; 0.3 μM (procedure of Example 2)", "result": "B (low broodsize (25-100 progeny))"},
      {"measurement": "5 Day Visual Score V2", "setting": "Caenorhabditis elegans [2]; 23.3 μM (procedure of Example 2)", "result": "L1"},
      {"measurement": "5 Day Visual Score V1", "setting": "Caenorhabditis elegans [2]; 70 μM (procedure of Example 2)", "result": "L1"}
    ]}
  ]
}
